Measured values taken from article PMC10490044, “Chromogenic Assay Is More Efficient in Identifying α-Amylase Inhibitory Properties of Anthocyanin-Rich Samples When Compared to the 3,5-Dinitrosalicylic Acid (DNS) Assay” (Molecules, 2023).
≈ marks a conversion by molar mass, not a printed value. Read-outs that look alike come from different tables or passages of the source.

How the values were obtained:
[1] = molecular target: T1, porcine pancreatic α-amylase (PPA) (Sus scrofa, UniProt P00690); experiment: Direct chromogenic assay, CNPG3 as substrate; format: biochemical
T1 construct: purchased Sigma-Aldrich Co., Ltd., Dorset, UK
T1 sequence (P00690 16-511): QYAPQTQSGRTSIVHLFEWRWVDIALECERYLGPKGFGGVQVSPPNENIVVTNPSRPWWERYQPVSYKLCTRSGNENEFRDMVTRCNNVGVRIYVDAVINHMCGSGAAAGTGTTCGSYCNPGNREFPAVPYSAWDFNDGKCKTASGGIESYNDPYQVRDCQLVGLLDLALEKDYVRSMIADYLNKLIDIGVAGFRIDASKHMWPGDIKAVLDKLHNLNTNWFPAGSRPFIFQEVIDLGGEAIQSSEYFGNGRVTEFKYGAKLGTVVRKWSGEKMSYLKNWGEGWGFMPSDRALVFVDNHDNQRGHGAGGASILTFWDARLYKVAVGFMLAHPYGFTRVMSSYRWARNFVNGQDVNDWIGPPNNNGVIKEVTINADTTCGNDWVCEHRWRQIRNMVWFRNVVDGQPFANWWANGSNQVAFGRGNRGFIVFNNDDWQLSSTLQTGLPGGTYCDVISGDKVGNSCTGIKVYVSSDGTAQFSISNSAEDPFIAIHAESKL
Procedure: The inhibition of α-amylase activity was measured according to the method described by Kalita, Holm, LaBarbera, Petrash, and Jayanty with some modifications. […] This was followed by the addition of 50 µL of 2 mM CNPG3 substrate, diluted in phosphate buffer. The change in absorbance, indicating the release of p-nitrophenol as a reaction product, was recorded in 1 min intervals at 405 nm over a 10 min period (at 37 °C) using a Tecan Spark 10 M microplate reader. Reaction product scans (360–600 nm) were performed at the end of each experiment. Enzyme activity and inhibition (%) were calculated from the absorbance difference of each sample, in reference to the non-inhibited control.
(§1) In preliminary experiments, the optimum enzyme and substrate concentrations for the assay were determined using different concentrations of α-amylase (0.25, 0.5, and 1 U/mL) and CNPG3 (0, 0.625, 1.25, 2.5, and 5 mM). The linearity of enzyme reaction was monitored over 20 min under optimized enzyme and substrate concentrations, and incubation time for enzymatic reaction was defined. […] The rate of enzymatic reaction (V) was calculated by dividing the change in absorbance (at 405 nm) over time. The Lineweaver–Burk double reciprocal plot was obtained by plotting the 1/V against reciprocal of substrate (1/[S]), and Km and Vmax were calculated.

[2] = molecular target: T2, pancreatic α-amylase (PPA) (Sus scrofa, UniProt P00690); experiment: Mode of inhibition / enzyme kinetics, Lineweaver–Burk plots with CNPG3; format: biochemical, porcine; conditions: for mode of inhibition: CNPG3 0–5 mM, PPA 1 U/mL; for effect of inhibitor on Vmax: Lineweaver–Burk plot
T2 construct: purchased Sigma-Aldrich Co., Ltd., Dorset, UK
T2 sequence (P00690 16-511): T1 sequence (P00690 16-511)
Procedure: as §1
A Lineweaver–Burk plot was constructed for every inhibitor, and Km and Vmax were calculated.
All experiments were conducted at least in triplicates and analysed using Prism software program v. 9 (GraphPad Software, San Diego, CA, USA). […] The IC50 values were then obtained from the respective curve. The mode of enzyme inhibition was graphically determined using the Lineweaver–Burk plot through nonlinear regression of all data sets at once using GraphPad Prism software.

pancreatic alpha-amylase = conditions: cited from earlier work
[3] = molecular target: T1, porcine pancreatic α-amylase (PPA); experiment: DNS assay, amylose as substrate; format: biochemical; conditions: concentrations up to 435 μM
Procedure: The samples were then placed in a water bath (100 °C, 10 min) to stop the enzyme reaction, subsequently transferred to ice, cooled down, and centrifuged at 4000× g for 5 min.
In order to remove potentially interfering compounds such as anthocyanins and other polyphenols that might react with the DNS reagent, solid phase reaction (SPE) was applied [20]. Briefly, Oasis MAX cartridges (30 mg) were preconditioned (1 mL water, 1 mL methanol) and then dried under vacuum for 10 min. The samples that underwent the enzymatic reaction above were applied to the cartridge, and the flow through was collected. Then, 1 mL DNS reagent was added to each SPE-purified flow through sample (500 μL), and samples were heated for 10 min at 100 °C to aid the reaction. Subsequently, samples were cooled down to room temperature, diluted to an appropriate absorbance range, transferred to wells in 96-well plates (2 × 250 µL per sample), and absorbance was recorded at 540 nm using Tecan Spark 10 M multimode microplate reader (TECAN, Mannedorf, Switzerland). Enzyme inhibition was calculated as a percentage of the 100% activity control (absence of inhibitor) and considering individual sample background (absence of enzyme and substrate).

human salivary amylase = conditions: reference not given; cited from earlier work
[4] = molecular target: T1, porcine pancreatic α-amylase (PPA); conditions: cited from earlier work; for mode of inhibition: DNS method; for IC50: ref Sui, Zhang, and Zhou 35
α-amylase = molecular target: T3, α-amylase (Sus scrofa, UniProt P00690); experiment: α-Amylase inhibition by anthocyanin metabolites (assay not stated); format: biochemical; conditions: high concentrations of 1000 μg/mL
T3 construct: purchased Sigma-Aldrich Co., Ltd., Dorset, UK
T3 sequence (P00690 16-511): T1 sequence (P00690 16-511)

human pancreatic amylase = molecular target: human pancreatic amylase; design: method as in Xie et al. 28; conditions: similar substrate; ref Xie et al. 28; cited from earlier work
[5] = extracts per total anthocyanin content

In the case of `OC[C@H]1O[C@@H](Oc2cc3c(O)cc(O)cc3[o+]c2-c2ccc(O)c(O)c2)[C@H](O)[C@@H](O)[C@H]1O` [Cyanidin-3-O-galactopyranoside], the IC50 [1] is reported as 414 µM, the “Direct Chromogenic Assay IC50” value [1, 5] is reported as 414 ± 2.6 µg/mL and the mode of inhibition [2] is reported as “competitive inhibitor”. For the same compound, the “effect of inhibitor on Vmax” value [2] was “remained constant”.

In the case of `Oc1cc(O)c2cc(O)c(-c3ccc(O)c(O)c3)[o+]c2c1` [Cyanidin, cyanidin], the IC50 [1] is given as 491 µM, the IC50 [1, 5] is given as 491 µM and the “IC50, DNS assay” value (pancreatic alpha-amylase; ref 27) is given as 109.2 µg/mL. For the same compound, the “DNS Assay % inhibition” value [3] was 7%.

In the case of `COc1cc(-c2[o+]c3cc(O)cc(O)c3cc2O[C@@H]2O[C@H](CO)[C@@H](O)[C@H](O)[C@H]2O)cc(OC)c1O` [malvidin-3-glucoside], the IC50 (human salivary amylase) is listed as 675 ± 73 µM.

In the case of `COc1cc(-c2[o+]c3cc(O)cc(O)c3cc2O[C@@H]2O[C@H](CO)[C@@H](O)[C@H](O)[C@H]2O)ccc1O` [peonidin-3-glucoside], the mode of inhibition [4] is given as “competitively” and the IC50 [4] is given as 75 ± 7 µM.

With `O=C(/C=C/c1ccc(O)c(O)c1)O[C@@H]1C[C@](O)(C(=O)O)C[C@@H](O)[C@H]1O` [chlorogenic acid] the “inhibition of α-amylase” value (α-amylase) was “unable to determine inhibition”.

For `O=C(O)c1cc(O)c(O)c(O)c1` [gallic acid], the “inhibition of α-amylase” value (α-amylase) was “unable to determine inhibition”.

For `OC[C@H]1O[C@@H](Oc2cc3c(O[C@@H]4O[C@H](CO)[C@@H](O)[C@H](O)[C@H]4O)cc(O)cc3[o+]c2-c2ccc(O)c(O)c2)[C@H](O)[C@@H](O)[C@@H]1O` [cyanidin-3,5-diglucoside], the “IC50, DNS assay” value (pancreatic alpha-amylase; ref 27) is given as greater than 600 µg/mL and the mode of inhibition [4] is given as “competitively”.

In the case of `OC[C@H]1O[C@@H](Oc2cc3c(O)cc(O)cc3[o+]c2-c2ccc(O)c(O)c2)[C@H](O)[C@@H](O)[C@@H]1O` [cyanidin-3-glucoside], the IC50 (human salivary amylase) is listed as 180 ± 20 µM, the “IC50, DNS assay” value (pancreatic alpha-amylase; ref 27) is listed as 145.5 µg/mL and the mode of inhibition [4] is listed as “competitively”. The IC50 [4] was 24 ± 3 µM.

In the case of `O=[N+]([O-])c1ccc(O[C@H]2O[C@H](CO)[C@@H](O[C@H]3O[C@H](CO)[C@@H](O[C@H]4O[C@H](CO)[C@@H](O)[C@H](O)[C@H]4O)[C@H](O)[C@H]3O)[C@H](O)[C@H]2O)c(Cl)c1` [CNPG3, 2-chloro-4 nitrophenyl α-D-maltotrioside], the “Km value (Michaelis constant) of substrate” value ([2]; no inhibitor) is reported as 4.4 mg/mL.

In the case of `C[C@H]1O[C@H](O[C@H]2[C@H](O)[C@@H](O)[C@@H](O[C@H]3[C@H](O)[C@@H](O)C(O)O[C@@H]3CO)O[C@@H]2CO)[C@H](O)[C@@H](O)[C@@H]1N[C@H]1C=C(CO)[C@@H](O)[C@H](O)[C@H]1O` (stereo partly shown) [acarbose], the mode of inhibition [2] is listed as “uncompetitive enzyme inhibition”, the “effect of inhibitor on Vmax” value [2] is listed as “decreased” and the “IC50, human pancreatic amylase” value (human pancreatic amylase) is listed as 0.47 µg/mL (≈ 0.728 µM). The “IC50, DNS assay” value (pancreatic alpha-amylase; ref 15) was 11.7 µg/mL (≈ 18.1 µM) and the “IC50, DNS assay” value (pancreatic alpha-amylase; ref 27) was 77.5 µg/mL (≈ 120 µM).

With `O=C(O)c1ccc(O)c(O)c1` [protocatechuic acid] the “inhibition of α-amylase” value (α-amylase) was “unable to determine inhibition”.

For `C[C@@H]1O[C@@H](OC[C@H]2O[C@@H](Oc3cc4c(O)cc(O)cc4[o+]c3-c3ccc(O)c(O)c3)[C@H](O)[C@@H](O)[C@@H]2O)[C@H](O)[C@H](O)[C@H]1O` [cyanidin-3-rutinoside], the IC50 (pancreatic alpha-amylase; ref 15, read-out: IC50, α-amylase) is listed as 24.4 µM and the mode of inhibition [4] is listed as “competitively”.
